According to the NIST ThermoML archive (doi:10.1016/j.jct.2011.01.016):

Experiments:
[1] = 101.33 kPa, Liquid; for viscosity: Concentric cylinders viscometry; for mass density: Vibrating tube method
[2] = xn = mol fraction of the nth substance listed; settings: 100 kPa, Liquid, x2 = 0.68; for viscosity: Concentric cylinders viscometry; for mass density: Vibrating tube method

CCCCCCCCCCCCCC[P+](CCCCCC)(CCCCCC)CCCCCC.N#C[N-]C#N [tetradecyl(trihexyl)phosphonium dicyanamide]
[1]
Settings	mass density [kg/m3]	viscosity [mPa·s]
278.15 K	910.8	1646.8
283.15 K	907.8	1144.9
288.15 K	904.9	816.36
293.15 K	901.9	592.93
298.15 K	899	438.57
303.15 K	896.1	329.68
308.15 K	893.3	251.71
313.15 K	890.4	195
318.15 K	887.6	153.15
323.15 K	884.8	121.78
328.15 K	882	97.96
333.15 K	879.2	79.73
338.15 K	876.4	65.56
343.15 K	873.7	54.43
348.15 K	870.9	45.6
353.15 K	868.1	38.53
358.15 K	865.3	32.85
363.15 K	862.6	28.2

CCCCCCCCCCCCCC[P+](CCCCCC)(CCCCCC)CCCCCC.O=S(=O)([N-]S(=O)(=O)C(F)(F)F)C(F)(F)F
[1]
Settings	mass density [kg/m3]	viscosity [mPa·s]
278.15 K	1081.1	1246.2
283.15 K	1077.4	871.17
288.15 K	1073.6	622.45
293.15 K	1069.8	453.64
298.15 K	1066.1	336.74
303.15 K	1062.4	254.24
308.15 K	1058.8	195.04
313.15 K	1055.2	151.85
318.15 K	1051.6	119.85
323.15 K	1048	95.81
328.15 K	1044.4	77.55
333.15 K	1040.9	63.47
338.15 K	1037.3	52.49
343.15 K	1033.7	43.84
348.15 K	1030.2	36.95
353.15 K	1026.6	31.41
358.15 K	1023.1	26.91

CCCCCCCCCCCCCC[P+](CCCCCC)(CCCCCC)CCCCCC.[Br-] [tetradecyltrihexylphosphonium bromide] + O
[2]
Settings	mass density [kg/m3]	viscosity [mPa·s]
298.15 K	957	238.84
303.15 K	953.6	180.54
308.15 K	950.3	138.77
313.15 K	946.9	108.27
318.15 K	943.6	85.71
323.15 K	940.2	68.71
328.15 K	936.9	55.74
333.15 K	933.5	45.71
338.15 K	930.2	37.91
343.15 K	926.8	31.74
348.15 K	923.5	26.82
353.15 K	920.1	22.85
358.15 K	916.7	19.62
363.15 K	913.4	16.94

CCCCCCCCCCCCCC[P+](CCCCCC)(CCCCCC)CCCCCC.CS(=O)(=O)[O-] [trihexyltetradecylphosphonium methanesulfonate]
[1]
Settings	mass density [kg/m3]	viscosity [mPa·s]
278.15 K	940.5	7526.5
283.15 K	937.4	4689.7
288.15 K	934.3	3040.4
293.15 K	931.2	2022.2
298.15 K	928.1	1379.4
303.15 K	925.1	962.83
308.15 K	922	686.13
313.15 K	918.9	498.53
318.15 K	915.9	369.02
323.15 K	912.9	277.77
328.15 K	909.9	212.37
333.15 K	907	164.79
338.15 K	904.1	129.63
343.15 K	901.2	103.34
348.15 K	898.3	83.37
353.15 K	895.3	68.01
358.15 K	892.4	56.06
363.15 K	889.4	46.65

CCCCCCCCCCCCCC[P+](CCCCCC)(CCCCCC)CCCCCC.[Br-] [tetradecyltrihexylphosphonium bromide]
[1]
Settings	mass density [kg/m3]	viscosity [mPa·s]
278.15 K	967.5	16955
283.15 K	964.4	10457
288.15 K	961.3	6688.3
293.15 K	958.2	4421.3
298.15 K	955.2	2988.4
303.15 K	952.1	2065.2
308.15 K	949	1456.3
313.15 K	946	1046.7
318.15 K	942.9	764.04
323.15 K	939.8	568.06
328.15 K	936.7	428.98
333.15 K	933.7	328.56
338.15 K	930.7	255.03
343.15 K	927.6	200.46
348.15 K	924.6	159.44
353.15 K	921.7	128.21
358.15 K	918.7	104.15
363.15 K	915.7	85.44

CCCCCCCCCCCCCC[P+](CCCCCC)(CCCCCC)CCCCCC.[Cl-] [trihexyl(tetradecyl)phosphonium chloride]
[1]
Settings	mass density [kg/m3]	viscosity [mPa·s]
278.15 K	901.6	15339
283.15 K	898.6	9447.7
288.15 K	895.7	6088.5
293.15 K	892.8	4030.4
298.15 K	889.9	2729.1
303.15 K	887	1890.3
308.15 K	884	1336.4
313.15 K	881.1	962.5
318.15 K	878.2	705.75
323.15 K	875.3	525.98
328.15 K	872.3	398.19
333.15 K	869.5	305.73
338.15 K	866.6	237.78
343.15 K	863.7	187.39
348.15 K	860.8	149.21
353.15 K	858	120.11
358.15 K	855.1	97.66
363.15 K	852.3	80.17
